What was measured:
[1] = Experimental determination of water solubility (UV-Vis of saturated solution); format: physicochemical
Method: To attain neutral pH, a 0.01 M solution of buffer (HEPES, pKa 7.55) in 0.1 M KCl was made in its acidic form and neutralized to pH 7 with KOH. A dilute solution (of the metal complex) of known concentration was prepared and the UV-Vis spectrum acquired. The extinction coefficient (ε) at the maximum absorbance (at wavelength typically 320-360 nm) was then calculated using Beer-Lambert's law. A saturated solution of the metal complex was then prepared and the UV-Vis spectrum acquired and the maximum absorbance (at wavelength typically 320-360 nm) recorded. In cases where the saturated solution produced extremely high absorbances, the saturated solution was diluted and then the spectrum recorded. Using the known ε, the concentration of the saturated solution was then determined. […] The spectra of the complexes at pH 7 are consistent with the known ML spectra observed from spectrophotometric solution thermodynamics studies of the metal-ligand complexation reactions and indicate the absence of free ligand (note: M=metal, L=ligand).
Typically, preliminary investigation of the minimum solubility of the complexes involves dissolving a known quantity of the complex in a precise volume of solvent. The visible disappearance of particulate matter, over time or instantaneous in some cases, is indicative of complete dissolution of the complex.

[2] = literature reports; cited from earlier work
[3] = Gd(III) formation constants / pGd (spectrophotometric titration); format: physicochemical
Method: The term, “pGd,” as used herein is −log10[Gd^III]free at pH=7.4, and pre-equilibrium concentrations of [L]=10 μM, [Gd^III]=1 μM.
The Bjerrum method can be used for metal complex stability measurements (pH titrations of ligand and metal+ligand). Competition titrations with DTPA can be performed to determine the stability of very stable complexes where direct pH titration methods are inappropriate. Spectrophotometric techniques can be used to monitor metal-ligand complexation reactions, which give rise to changes in the Vis/UV spectra relative to the parent metal and ligand species. With digitally-recording automated spectrophotometeric titrators, factor analysis of the Vis/UV spectra readily determined the species in solution, their individual spectra and the equilibrium constants which interrelate them.
Data for the spectrophotometric determination of formation constants for the compounds of the invention (e.g., Tren-Me2-5,4-HOPY) with gadolinium are generally collected over a pH range of 2-8.
The formation constants are defined by eq 3:
The spectrophotometric data is refined using a model. […]
The pGd values are defined by eq 4: pGd=−log[Gd]free at pH 7.4 for [Gd]=1 μM, [L]=10 μM (4) A pM value can be calculated for many conditions, but it is generally preferable to calculate it for conditions relevant to biological considerations. […]

[4] = cited from earlier work
[5] = free complex in water, in vitro; cited from earlier work
rat hepatocytes = conditions: cited from earlier work
[6] = biological target: human serum albumin (HSA) (Homo sapiens, UniProt P02768); conditions: cited from earlier work
human serum albumin (HSA), sequence (P02768 25-609): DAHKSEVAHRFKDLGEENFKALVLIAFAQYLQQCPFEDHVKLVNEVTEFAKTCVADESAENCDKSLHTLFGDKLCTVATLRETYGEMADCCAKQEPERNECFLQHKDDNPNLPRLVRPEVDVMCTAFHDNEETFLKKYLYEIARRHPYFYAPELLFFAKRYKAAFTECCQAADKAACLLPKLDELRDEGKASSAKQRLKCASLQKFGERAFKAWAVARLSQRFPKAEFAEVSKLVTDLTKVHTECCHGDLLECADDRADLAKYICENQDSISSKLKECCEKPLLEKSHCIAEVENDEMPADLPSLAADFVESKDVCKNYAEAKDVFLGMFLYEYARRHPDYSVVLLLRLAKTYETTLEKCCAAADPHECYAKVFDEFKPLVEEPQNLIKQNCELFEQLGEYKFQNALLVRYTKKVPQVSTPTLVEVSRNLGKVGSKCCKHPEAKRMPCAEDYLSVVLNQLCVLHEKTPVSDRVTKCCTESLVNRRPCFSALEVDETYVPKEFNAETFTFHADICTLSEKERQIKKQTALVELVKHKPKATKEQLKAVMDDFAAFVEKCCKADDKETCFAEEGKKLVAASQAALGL

[7] = Water proton relaxivity (longitudinal relaxation rate, 20 MHz); format: physicochemical; conditions: 37° C.
Method: The efficacy of a paramagnetic complex as a possible MRI contrast agent depends on its ability to catalyze the nuclear magnetic relaxation rate of solvent protons (Lauffer, R. B., Chem. Rev., 87, 901 (1987); Tweedle, M. F.; Kumar, K. In Magnetic Resonance Imaging (MRI) Contrast Agents; Clarke, M. I., Sadler, P. J., Eds.; Springer: Berlin, Germany, Vol. 2, p. 1 (1999); Koenig et al., Prog. NMR Spectrosc., 22:487 (1990)). This property, which is measured in terms in relaxivity, r1p, is defined as the enhancement of the water proton longitudinal relaxation rate induced by a 1 mML^−1 solution of the paramagnetic compound at a given temperature and magnetic field strength (Aime et al., Chem. Soc. Rev., 27:19 (1998)).
In an exemplary assay, the longitudinal water proton relaxation rate at 20 MHz are measured (typically with a NMR spectrometer operating at 0.5 T) with a reproducibility of the T1 data to ±0.5%. Equipment for the control of temperature (with an accuracy of ±0.1° C.) during these measurements are employed.
Water proton relaxation measurements were carried out at 20 MHz with a Stelar Spinmaster Spectrometer (Mede, Pv, Italy) on 0.5-2 mM solutions of the Gd(III) complex. Spin-lattice relaxation times T1 were measured by the standard inversion recovery method with typical 90° pulse width of […], 16 experiments of 4 scans. The reproducibility of the data is ±1%. The temperature was controlled by a Stelar VTC-91 air-flow heater equipped with copper-constantan thermocouple (uncertainty ±0.1° C). The 1/T1 nuclear magnetic relaxation dispersion (NMRD) profiles of water protons were measured from 0.00024 to 1.2 T (corresponding to the range 0.01-50 MHz of proton Larmor frequencies) at 15, 25 and 39° C. using 1.5 mM solutions of the complex on the field-cycling Koenig-Brown relaxometer of the University of Torino (Italy). The temperature was controlled by circulating freon from an external bath and measured by a thermometer inserted into the freon close to the sample. The reproducibilities of the measured T1 values were estimated to be ±2%. […]

[8] = literature; cited from earlier work
[9] = Ligand protonation constants (potentiometric titration); format: physicochemical
Method: The protonation constants for chelates of the invention are readily determined by potentiometric titrations. These constants are defined by eq 2:
As previously reported, (Turowski et al., Inorg. Chem., 27:474 (1988)) potentiometric titrations were performed using an automated apparatus consisting of a Accumet pH meter (models 925, 825MP or 15), a pH electrode (Orion Ross semi-micro combination, Cole Parmer semi-micro combination or Corning high performance combination electrodes), an autoburet (Metrohm 665 Dosimat or 702 SM Titrino) fitted with a 5 mL piston exchange unit and a jacketed Ar swept titration cell maintained at 25.0° C. by a Lauda K-2/R or Neslab RTE-111 constant temperature circulating bath. The electronic systems were integrated for automated collection with an IBM PC clone.
In this study, ligand and metal complex solutions were titrated from low to high pH and back again if possible. Titrations for the Zn/HOPY systems were not reversible, presumably due to the formation of mixed ML hydroxide complexes. […] Formation constants calculated from the potentiometric titration data were determined with the aid of a FORTRAN non-linear least-squares refinement program (BETA 90). […] Although this is a low concentration for potentiometric titrations, the buffer regions corresponding to the protonation steps are around neutral pH, and so could still be determined.

mice = conditions: cited from earlier work

For `Cn1ccc(C(=O)NCCN(CCNC(=O)c2ccn(C)c(=O)c2O)CCNC(=O)c2ccn(C)c(=O)c2O)c(O)c1=O` [Formula 7, tris[(3-hydroxy-1-methyl-2-oxo-1,2-didehydropyridine-4-carboxamido)ethyl]amine], the “Water Solubility (pH 7, 25° C.)” value [1] is listed as 0.1 mM, the “solubility in water of the Gd(III) complex” value [2] is listed as “about 0.1 mM” and the “pH range over which speciation in water is unchanged” value ([3]; calculated for 1 μM Gd and 10 μM ligand (FIG. 5)) is listed as 5.5-10.
In the case of `O=C([O-])CN(CCN(CC(=O)[O-])CC(=O)[O-])CCN(CC(=O)[O-])C(COCc1ccccc1)C(=O)[O-].[Gd+3]` (centres unmarked) [Gd-BOPTA], the “relaxivity in rat plasma” value [4] is listed as 6.9 mM⁻¹ s⁻¹, the relaxivity in water [5] is listed as 4.4 mM⁻¹ s⁻¹ and the “relaxivity in rat hepatocytes” value (rat hepatocytes) is listed as 30 mM⁻¹ s⁻¹.
For `O=C([O-])CN(CCN(CC(=O)[O-])C[C@H](COP(=O)([O-])OC1CCC(c2ccccc2)(c2ccccc2)CC1)N(CC(=O)[O-])CC(=O)[O-])CC(=O)[O-].[Gd+3].[H+].[H+].[H+]` [MS-325], the relaxivity in water [5] is listed as 6.6 mM⁻¹ s⁻¹ and the “relaxivity of the HSA adduct” value [6] is listed as 42.0 mM⁻¹ s⁻¹.
In the case of `Cn1ccc(C(=O)NCCN(CCNC(=O)c2ccn(C)c(=O)c2O)CCNC(=O)c2ccn(C)c(=O)c2O)c(O)c1=O` [TREN-1-Me-HOPO, tris[(3-hydroxy-1-methyl-2-oxo-1,2-didehydropyridine-4-carboxamido)ethyl]amine], the “relaxivity (r1)” value [7] is listed as 10.5 mM⁻¹ s⁻¹, the “relaxivity relative to [Gd(DTPA)(H2O)]” value [7] is listed as ~2.5 times and the “number of coordinated water molecules (q)” value [8] is listed as 2. The pKa [9] was 6.12, the pGd ([3]; pH 7.4, [Gd]=1 μM, [L]=10 μM) was 20.3 and the toxicity to mice (mice) was “low toxicity”.

From patent US7718781B2, “Hydroxypyridonate and hydroxypyrimidinone chelating agents” (The Regents of the University of California, priority 2001, dated 2010)
